In one test the target is T1, MMP-2 (Homo sapiens, UniProt P08253).
T1 construct: made in house; host or cells: MMP-2-transfected p2AHT2 cells
T1 sequence (P08253 110-660): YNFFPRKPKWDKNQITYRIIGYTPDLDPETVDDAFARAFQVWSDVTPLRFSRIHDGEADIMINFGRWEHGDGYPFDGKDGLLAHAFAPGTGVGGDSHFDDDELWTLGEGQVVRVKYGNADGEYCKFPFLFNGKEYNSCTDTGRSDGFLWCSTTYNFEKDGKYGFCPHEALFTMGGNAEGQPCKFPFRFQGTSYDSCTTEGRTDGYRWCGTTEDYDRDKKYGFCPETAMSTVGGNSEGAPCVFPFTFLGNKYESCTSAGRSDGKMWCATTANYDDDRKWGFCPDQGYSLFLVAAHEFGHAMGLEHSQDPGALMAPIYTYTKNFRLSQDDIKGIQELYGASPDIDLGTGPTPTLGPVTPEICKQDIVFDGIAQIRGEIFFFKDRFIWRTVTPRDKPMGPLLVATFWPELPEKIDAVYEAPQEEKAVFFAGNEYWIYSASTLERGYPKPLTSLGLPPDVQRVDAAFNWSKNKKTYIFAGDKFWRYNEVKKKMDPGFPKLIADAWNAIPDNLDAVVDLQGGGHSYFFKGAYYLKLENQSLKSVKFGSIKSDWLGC
Description: In vitro MMP inhibition, Ki determination (fluorogenic substrate II). To be noted: read-out: MMP-2 Ki. The format is biochemical. As to the method:
(§1) Several hydroxamic acids and salts thereof were analyzed in in vitro assays to determine their ability to inhibit the MMP cleavage of peptide substrates. […] and IC50 constants were calculated from the assayed hydroxamic acid-MMP interactions.
(§2) Human recombinant MMP-1, MMP-2, MMP-9, MMP-13, and MMP-14 were used in this assay. All enzymes were prepared in Assignee's laboratories following usual laboratory procedures. Protocols for the preparation and use of these enzymes are available in the scientific literature. See, e.g., Enzyme Nomenclature (Academic Press, San Diego, Calif., 1992) (and the citations therein). See also, Freije et al., “Molecular cloning and expression of collagenase-3, a novel human matrix metalloproteinase produced by breast carcinomas,” J Biol. Chem., 269(24), 16766-16773 (1994).
The MMP-2 proenzyme was purified by gelatin Sepharose chromatography from MMP-2-transfected p2AHT2 cells provided by Dr. Gregory Goldberg of Washington University (St. Louis, Mo.).
(§3) All MMPs were activated using 4-aminophenylmercuric acetate (“APMA”, Sigma Chemical, St. Louis, Mo.) or trypsin. MMP-9 also was activated using human recombinant MMP-3 (purified in Assignee's laboratory following standard cloning and purification techniques).
(§4) Two fluorogenic, methoxycoumarin-containing polypeptide substrates were used in the MMP inhibition assays: [drawing 427] Here, “Dpa” is 3-(2,4-dinitrophenyl)-L-2,3-diaminopropionyl group, and “MCA” is 7-methoxycoumarin-4-yl acetyl. Substrate (I) was purchased from Baychem (Redwood City, Calif.), and substrate II was prepared Assignee's laboratory. Substrate I was used in the IC50 determination assays, while substrate II was used in the Ki determination assays. In the absence of MMP inhibitory activity, either substrate is cleaved at the Gly-Leu peptide bond. This cleavage separates the highly fluorogenic peptide from the 2,4-dinitrophenyl quencher, thus resulting in increase of fluorescent intensity.
(§5) The stock solutions of the assayed hydroxamic acids (or salts thereof) were prepared in 1% dimethyl sulfoxide (DMSO). These stock solutions were diluted in Buffer A (100 mM Tris-HCl, 100 mM NaCl, 10 mM CaCl2, 0.05% polyoxyethylene 23 lauryl ether, pH 7.5) to obtain solutions with different hydroxamic acid concentrations, i.e., assay solutions with different concentrations of the assayed MMP inhibitory compound. The experiment controls contained the same amount of Buffer A/DMSO as the assayed sample, but contained no hydroxamic acid (or salt thereof).
The assays from which the Ki determinations were made were performed as follows. The assayed hydroxamic acid samples were incubated in separate wells of untreated white polystyrene plates (Nunc Nalgene International, Rochester, N.Y.), and analyzed on a Tecan SpectraFlour Plus plate reader. The excitation wavelength was 330 nm, and the emission wavelength—420 nm. All samples (assayed hydroxamic acids and controls) were incubated in separate plate wells at room temperature for 1 hr in the presence of 4 μM of MMP substrate (II). In the absence of MMP inhibitory activity, substrate II was cleaved at the Gly-Leu bond resulting in an increase of relative fluorescence. Inhibition was observed as a reduced rate of this increase in relative fluorescence. The various hydroxamic acids were analyzed using a single low enzyme concentration with a single substrate concentration fixed at or below the Km. This protocol is a modification of method by Knight et al., FEBS Lett., 296(3), 263-266 (1992). Apparent inhibitory constants were determined by non-linear regression of reaction velocity as a function of inhibitor and enzyme concentration using Morrison's equation, as described by Kuzmic, Anal. Biochem. 286, 45-50 (2000). […] Since the substrate concentration was chosen to be at or below the Km, the apparent Ki's from this analysis were reported as Ki's without correction for the influence of substrate.

The next test concerns the target T2, MMP-13 (Homo sapiens, UniProt P45452).
T2 construct: made in house; host or cells: baculovirus / insect cells
The description is as above. The test is classed as biochemical. To be noted: human recombinant enzyme, 4 μM substrate II, room temperature, 1 hr. On the procedure: as §1, §2
The MMP-13 was obtained as a proenzyme from a full-length cDNA clone using baculovirus, as described by V. A. Luckow, “Insect Cell Expression Technology,” Protein Engineering: Principles and Practice, pp. 183-218 (edited by J. L. Cleland et al., Wiley-Liss, Inc., 1996). The expressed proenzyme was first purified over a heparin agarose column, and then over a chelating zinc chloride column. The proenzyme was then activated by APMA for use in the assay. […] See also, O'Reilly et al, Baculovirus Expression Vectors: A Laboratory Manual (W.H. Freeman and Co., New York, N.Y., 1992). See also, King et al., The Baculovirus Expression System: A Laboratory Guide (Chapman & Hall, London, England, 1992).
as §3, §4, §5
The assays from which the Ki determinations were made were performed as follows. The assayed hydroxamic acid samples were incubated in separate wells of untreated white polystyrene plates (Nunc Nalgene International, Rochester, N.Y.), and analyzed on a Tecan SpectraFlour Plus plate reader. The excitation wavelength was 330 nm, and the emission wavelength—420 nm. All samples (assayed hydroxamic acids and controls) were incubated in separate plate wells at room temperature for 1 hr in the presence of 4 μM of MMP substrate (II). In the absence of MMP inhibitory activity, substrate II was cleaved at the Gly-Leu bond resulting in an increase of relative fluorescence. Inhibition was observed as a reduced rate of this increase in relative fluorescence. The various hydroxamic acids were analyzed using a single low enzyme concentration with a single substrate concentration fixed at or below the Km.

[1] abbreviates: human recombinant enzyme, 4 μM substrate II, room temperature, 1 hr.

The structures appear in SMILES notation. Structures can show the parent of a compound that is named as a salt. Where two headings read alike, the source gives them in different places.

As to `CCCCc1cnc(N2CCN(S(=O)(=O)C3(C(=O)NO)CCOCC3)CC2)cn1` [Example 1, 4-{[4-(5-butylpyrazin-2-yl)piperazin-1-yl]sulfonyl}-N-hydroxytetrahydro-2H-pyran-4-carboxamide Dihydrochloride], the results for the Ki on MMP-2 (setting [1]) and on MMP-13 (MMP-13 Ki) were 1.52 nM and 1.82 nM, respectively.
Take `O=C(NO)C1(S(=O)(=O)N2CCN(c3ccc(OCC(F)(F)F)cc3)CC2)CCOCC1` [Example 2, N-hydroxy-4-({4-[4-(2,2,2-trifluoroethoxy)phenyl]piperazin-1-yl}sulfonyl)tetrahydro-2H-pyran-4-carboxamide Hydrochloride]: the Ki stood at 0.74 nM on MMP-2 (setting [1]) and 0.77 nM at MMP-13 (read-out: MMP-13 Ki).
As for `CCOc1ccc(N2CCN(S(=O)(=O)C3(C(=O)NO)CCOCC3)CC2)cc1` [Example 3, 4-{[4-(4-ethoxyphenyl)piperazinyl]sulfonyl}perhydro-2H-pyran-4-carbohydroxamic Acid], the Ki worked out at 0.59 nM at MMP-2 (setting [1]) and 1.46 nM on MMP-13 (read-out: MMP-13 Ki).
The like results for `O=C(NO)C1(S(=O)(=O)N2CCN(c3ccc(OC(F)(F)C(F)F)cc3)CC2)CCOCC1` [Example 4, 4-({4-[4-(1,1,2,2-tetrafluoroethoxy)phenyl]piperazinyl}sulfonyl)perhydro-2H-pyran-4-carbohydroxamic Acid] were, in that order, 0.104 nM and 0.216 nM.
For `CCCCc1ccc(N2CCN(S(=O)(=O)C3(C(=O)NO)CCN(CCOC)CC3)CC2)cc1` [Example 5, 4-{[4-(4-butylphenyl)piperazin-1-yl]sulfonyl}-N-hydroxy-1-(2-methoxyethyl)piperidine-4-carboxamide Dihydrochloride] the same measures were 0.62 nM and 0.522 nM.
For `CCCCCc1ccc(N2CCN(S(=O)(=O)C3(C(=O)NO)CCN(CCOC)CC3)CC2)cc1` [Example 6, N-Hydroxy-1-(2-methoxyethyl)-4-{[4-(4-pentylphenyl)piperazin-1-yl]sulfonyl}piperidine-4-carboxamide Dihydrochloride] the same measures were 0.501 nM and 0.27 nM.
On to `O=C(NO)C1(S(=O)(=O)N2CCN(c3ccc(OCCCC(F)(F)F)cc3)CC2)CCOCC1` [Example 7, N-hydroxy-4-({4-[4-(4,4,4-trifluorobutoxy)phenyl]piperazin-1-yl}sulfonyl)tetrahydro-2H-pyran-4-carboxamide Hydrochloride], for which the Ki is 0.497 nM at MMP-2 (setting [1]) and 0.17 nM on MMP-13 (read-out: MMP-13 Ki).
As for `COc1ccc(-c2cnc(N3CCN(S(=O)(=O)C4(C(=O)NO)CCOCC4)CC3)nc2)cc1` [Example 8, N-hydroxy-4-({4-[5-(4-methoxyphenyl)pyrimidin-2-yl]piperazin-1-yl}sulfonyl)tetrahydro-2H-pyran-4-carboxamide Hydrochloride], the Ki is 1.98 nM at MMP-2 (setting [1]) and 0.11 nM on MMP-13 (read-out: MMP-13 Ki).
For the compound `COCCN1CCC(C(=O)NO)(S(=O)(=O)N2CCN(c3ccc(OCCCC(F)(F)F)cc3)CC2)CC1` [Example 9, N-hydroxy-1-(2-methoxyethyl)-4-({4-[4-(4,4,4-trifluorobutoxy)phenyl]piperazin-1-yl}sulfonyl)piperidine-4-carboxamide Dihydrochloride], the Ki worked out at 0.223 nM on MMP-2 (setting [1]) and 0.05 nM on MMP-13 (read-out: MMP-13 Ki).
The like results for `O=C(NO)C1(S(=O)(=O)N2CCN(c3ccc(OCC4CC4)c(F)c3)CC2)CCN(C2CC2)CC1` [Example 10, 1-cyclopropyl-4-[[4-[4-(cyclopropylmethoxy)-3-fluorophenyl]-1-piperazinyl]sulfonyl]-N-hydroxy-4-piperidinecarboxamide, dihydrochloride] were, in that order, 0.52 nM and 3.88 nM.
In the case of `CCCCOc1ccc(N2CCN(S(=O)(=O)C3(C(=O)NO)CCN(CCOC)CC3)CC2)cc1F` [Example 11, 4-[[4-(4-butoxy-3-fluorophenyl)-1-piperazinyl]sulfonyl]-N-hydroxy-1-(2-methoxyethyl)-4-piperidinecarboxamide, Dihydrochloride], the figures for the Ki at MMP-2 (setting [1]) and on MMP-13 (read-out: MMP-13 Ki) were 0.71 nM and 0.67 nM, respectively.
For `O=C(NO)C1(S(=O)(=O)N2CCN(c3ccc(-c4ccccc4)c(F)c3)CC2)CCOCC1` [Example 12, 4-{[4-(2-fluoro-1,1′-biphenyl-4-yl)piperazin-1-yl]sulfonyl}-N-hydroxytetrahydro-2H-pyran-4-carboxamide Hydrochloride] the same measures were 0.18 nM and 0.77 nM.
In the case of `CCCCCc1ccc(N2CCN(S(=O)(=O)C3(C(=O)NO)CCN(CCOC)CC3)CC2)cc1F` [Example 13, 4-{[4-(3-fluoro-4-pentylphenyl)piperazin-1-yl]sulfonyl}-N-hydroxy-1-(2-methoxyethyl)piperidine-4-carboxamide Dihydrochloride], the Ki on MMP-2 (setting [1]) came to 0.549 nM; at MMP-13 (read-out: MMP-13 Ki), 0.61 nM.
`COCCOc1ccc(N2CCN(S(=O)(=O)C3(C(=O)NO)CCOCC3)CC2)cc1` [Example 14, N-hydroxy-4-({4-[4-(2-methoxyethoxy)phenyl]piperazin-1-yl}sulfonyl)tetrahydro-2H-pyran-4-carboxamide Hydrochloride]: the Ki at MMP-2 (setting [1]) turned out to be 3.84 nM; at MMP-13 (read-out: MMP-13 Ki), 2.67 nM.
Take `O=C(NO)C1(S(=O)(=O)N2CCN(c3ccc(OCCCC(F)(F)F)cc3F)CC2)CCOCC1` [Example 117]: the inhibitory constant (Ki) on MMP-2 (value not in parenthesis) came to 2.58 nM.
Same read-out and setting: the result for `CCCCOc1ccc(N2CCN(S(=O)(=O)C3(C(=O)NO)CCN(c4nccc(C(F)(F)F)n4)CC3)CC2)cc1` [Example 130] reads 5.23 nM.

The term Ki denotes the equilibrium dissociation constant of an inhibitor or competing ligand from its target.
